# Patent US6812221B2, “FGF-affinity chromatography” (The Texas A&M University System, priority 2000, dated 2004)
# Entries after “also recorded” stand apart in the source; their conditions may differ.
# Experiments:
# [1] = Heparin affinity chromatography / heparin binding
# Experimental: FIG. 1. Intact heparin-binding in the GST-FGF7 fusion product. Pure 200 μg GST-FGF7 and 10 ng ^125I-FGF7 (3×10^6 cpm) was mixed and subjected to heparin affinity chromatography on Pharmacia FPLC system. The GST-FGF7 was detected as a major peak (solid trace) by absorbance at 280 nm.
# When fused at the N-terminal of FGF7 with a highly soluble and productive partner, Glutathione-S-transferase (GST), FGF7 was produced in bacteria at about 3.2 mg/ml yield with retained biological activity. Expressing alone has barely detectable level by immuno-reaction. Pure fusion protein was obtained by sequential chromatography on Glutathione (GSH) and Heparin affinity matrix (Luo et al. 1998, Lu et al. 1999, Jang et al. 1997). This is consistent with FGF7 crystal structure, which shown that the N-terminal of FGF7 is flexible and outside the compact core structure, and heparin-binding domain is apart from the flexible N-terminal. FGF7 itself was released by simply trypsin digestion that mimics an in vivo cleavage event (Luo et al. 1998, Lu et al. 1999, Jang et al. 1997).
# FGFR2111b = target: T1, FGFR2111b (Homo sapiens, UniProt P21802); experiment: Binding to FGFR complex on the surface of insect cells
# T1 construct: expressed in transfected cells; host or cells: insect cells
# Experimental: (§1) Finally, the recovery and activity of purified ^54Ser-FGF7 was tested after the removal of the GST portion by trypsin treatment from the heparin-immobilized GST-FGF7 recovered under the improved conditions employing 10 mM MgCl2 and the BL21 (DE3) pLysS strain. […] Results indicated a yield of pure ^54Ser-FGF7 of 4.8±0.5 mg per liter per OD600, which on a molar basis represents an average yield of 70 percent from the purified GST-FGF7 product.
# mouse keratinocytes (MK) = experiment: Mitogenic activity in cultured mouse keratinocytes (MK); assay type: cell-based; settings: cells in culture
# Experimental: as §1
# factor Xa [2] = experiment: Neutralization assay, anti-Factor Xa activity of heparin; assay type: biochemical; settings: 0.9M NaCl eluted 6000 Da heparin fractions
# Experimental: (§2) FIG. 4. Neutralization of anticoagulant activity of 0.9M NaCl eluted 6000 Da heparin (Sigma) fractions from GST-FGF7 column (closed squares) or Antithrombin column (closed triangles) by FGF7. a. 0.3, 1, 3, 10, 30 ug/ml FGF7 was used to neutralize anti-Factor Xa activity of 0.9M elute. b. 0.3, 1, 3, 10, 30 μg/ml FGF7 was used to neutralize anti-Factor IIa activity. The activity was expressed as percentage of Factor Xa or IIa activity in the presence of Antithrombin and FGF7, but absence of any heparin, subtracted by the remaining activity without FGF7 addition. […] Data represent average of at least three separate experiments.
# (§3) Neutralization assay. 10 μl 1 μg/ml 0.9 M high affinity FGF7 or Antithrombin bound 6000 Da heparin (final concentration 100 ng/ml) (Sigma, St. Louis) and 10 μl various concentration of FGF7 were incubated with 10 μl 10 μg/ml Antithrombin solution. The rest of the assay was essentially followed the anti-Factor Xa or anti-Factor IIa assay described above. The activity was expressed as percentage of Factor Xa or IIa activity in the presence of Antithrombin and FGF7, but absence of any heparin, subtracted by the remaining activity without FGF7 addition.
# Factor IIa = experiment: Neutralization assay, anti-Factor IIa activity of heparin; assay type: biochemical; settings: 0.9M NaCl eluted 6000 Da heparin fractions
# Experimental: as §2, §3
# [3] = cited from earlier work
# FGF7 = target: T2, FGF7 (Rattus norvegicus, UniProt Q02195); experiment: Protease (pronase) protection assay with 125I-FGF7; assay type: biochemical; settings: 150 ng pronase, overnight 37° C., SDS-PAGE/autoradiography
# T2 construct: GST (N, cleaved yes); made in house; host or cells: bacteria (E. coli)
# T2 sequence (Q02195 55-194): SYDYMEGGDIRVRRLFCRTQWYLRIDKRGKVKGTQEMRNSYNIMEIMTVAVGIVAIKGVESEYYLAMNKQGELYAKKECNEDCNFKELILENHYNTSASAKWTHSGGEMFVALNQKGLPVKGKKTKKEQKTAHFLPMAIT
# Experimental: Interaction of Heparin and Oligosaccharides with FGF. The antithrombin-binding decasaccharide (10-mer) was prepared, purified to homogeneity (28) and has the structure ΔUAp2S(1→4)-α-D-GlcNpS6S(1→4)-α-L-IdoAp(1→4)-α-D-GlcNpAc6S(1→4)-β-D-GlcAp(1→4)-α-D-GlcNpS3S6S(1→4)-α-L-IdoAp2S(1→4)-α-D-GlcNpS6S(1→4)-α-L-IdoAp2S(1→4)-α-D-GlcNpS6S. The tetradecasaccharide (14-mer) was prepared in >90% purity and characterized by multidimensional NMR spectroscopy (Toida et al. 1996). While the saccharide composition and the presence of an antithrombin-binding site pentasaccharide sequence could be confirmed, the precise placement of this sequence within the tetradecasaccharide could not be elucidated. The sequence was ΔUAp2S(1→4)-α-D-GlcNpS6S (1→4)-α-L-IdoAp2S(1→]n4)-α-D-GlcNpS6S(1→4)-α-LIdoAp(1→4)-α-D-GlcNpAc6S(1→4)-β-D-GlcAp(1→4)-α-D-GlcNpS3S6S(1→4)-α-L-IdoAp2S(1→[4)-α-D-GlcNpS6S(1→4)-α-L-IdoAp2S(1 43 ]m4)-α-D-GlcNS6S where n+m=3. The anti-factor Xa amydolytic activity of the hexasaccharide (6-mer), decasaccharide (10-mer) and tetradecasaccharide (14-mer) were 0, 3200 and 5800 units/mg, respectively, as determined against a low molecular weight heparin (Toida et al. 1996). Heparin was fractionated by antithrombin affinity chromatography (Kan et al. 1999). […] After incubation overnight at 37° C., SDS-PAGE and autoradiography were employed to quantify the remaining FGF. […]
# factor Xa [4] = settings: determined against a low molecular weight heparin (Toida et al. 1996); cited from earlier work
# T1 sequence (P21802 22-822 isoform P21802-3 limits assumed): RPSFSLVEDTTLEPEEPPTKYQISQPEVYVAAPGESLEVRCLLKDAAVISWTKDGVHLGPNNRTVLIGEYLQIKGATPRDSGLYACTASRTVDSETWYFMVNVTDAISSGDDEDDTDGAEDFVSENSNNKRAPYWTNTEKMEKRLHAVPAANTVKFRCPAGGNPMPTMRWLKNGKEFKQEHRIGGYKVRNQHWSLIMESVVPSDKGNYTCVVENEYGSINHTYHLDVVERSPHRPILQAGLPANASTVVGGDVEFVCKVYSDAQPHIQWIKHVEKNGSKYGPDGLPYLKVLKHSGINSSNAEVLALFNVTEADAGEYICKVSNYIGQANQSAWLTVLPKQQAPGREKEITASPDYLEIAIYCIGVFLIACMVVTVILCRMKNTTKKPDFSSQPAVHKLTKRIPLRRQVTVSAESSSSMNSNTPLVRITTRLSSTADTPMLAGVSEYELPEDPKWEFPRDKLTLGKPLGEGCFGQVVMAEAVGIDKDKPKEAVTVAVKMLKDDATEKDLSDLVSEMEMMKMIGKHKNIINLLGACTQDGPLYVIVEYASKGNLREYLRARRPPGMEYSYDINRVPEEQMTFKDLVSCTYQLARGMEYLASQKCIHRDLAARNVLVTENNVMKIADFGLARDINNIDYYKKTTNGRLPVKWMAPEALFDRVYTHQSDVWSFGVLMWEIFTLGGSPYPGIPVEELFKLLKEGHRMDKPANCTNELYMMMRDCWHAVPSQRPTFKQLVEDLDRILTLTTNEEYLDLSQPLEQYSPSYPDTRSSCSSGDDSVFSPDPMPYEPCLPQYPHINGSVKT
substance,measurement,setting,value
GST-FGF1: human FGF1 fused to Glutathione-S-Transferase (GST),heparin binding,[1],retain affinity for heparin similar to the unfused products
same,binding to / activation of the FGFR complex,FGFR2111b,Neither GST-FGF1 nor GST-FGF7 bind and activate the FGFR kinase complex
same,mitogenic activity,mouse keratinocytes (MK),Neither GST-FGF1 nor GST-FGF7 bind and activate the FGFR kinase complex and exhibit mitogenic activity
"GST-FGF7: fusion protein Glutathione-S-Transferase-Fibroblast Growth Factor 7, SEQ ID NO.4",neutralization of anti-Factor Xa activity compared with FGF7,factor Xa [2],same neutralization effects as FGF7
same,neutralization of anti-Factor IIa activity compared with FGF7,Factor IIa,same neutralization effects as FGF7
same,heparin binding,[1],retain affinity for heparin similar to the unfused products; also recorded: fully active
same,sodium chloride concentration of elution from heparin affinity column,"[1]; heparin affinity chromatography, FPLC (FIG. 1)",about 0.9 M
same,binding to / activation of the FGFR complex,FGFR2111b,Neither GST-FGF1 nor GST-FGF7 bind and activate the FGFR kinase complex; also recorded: inactive
same,mitogenic activity,mouse keratinocytes (MK),Neither GST-FGF1 nor GST-FGF7 bind and activate the FGFR kinase complex and exhibit mitogenic activity; also recorded: inactive
"PF4: Heparin-binding platelet factor 4, proposed scavenger for neutralizing the anticoagulant effect",adverse effect of administration to patients,"[3]; humans (U.S. Pat. No. 5,801,063)",serious granulocytopenia
heparin,patients developing clinically significant osteoporosis,"[3]; human, in vivo",half
same,patients with thrombocytopenia persisting for the duration of therapy,"[3]; human, in vivo",approximately 5%
protamine,incidence of mild reactions,[3]; use of protamine in patients,≤ 16%
ΔUAp2S(1→4)-α-D-GlcNpS6S (1→4)-α-L-IdoAp2S(1→]n4)-α-D-GlcNpS6S(1→4)-α-LIdoAp(1→4)-α-D-GlcNpAc6S(1→4)-β-D-GlcAp(1→4)-α-D-GlcNpS3S6S(1→4)-α-L-IdoAp2S(1→[4)-α-D-GlcNpS6S(1→4)-α-L-IdoAp2S(1 43 ]m4)-α-D-GlcNS6S where n+m=3 [tetradecasaccharide (14-mer)],protection of FGF7 against protease,FGF7,able to protect
same,anti-factor Xa amydolytic activity,factor Xa [4],5800 units/mg
ΔUAp2S(1→4)-α-D-GlcNpS6S(1→4)-α-L-IdoAp(1→4)-α-D-GlcNpAc6S(1→4)-β-D-GlcAp(1→4)-α-D-GlcNpS3S6S(1→4)-α-L-IdoAp2S(1→4)-α-D-GlcNpS6S(1→4)-α-L-IdoAp2S(1→4)-α-D-GlcNpS6S [decasaccharide (10-mer)],protection of FGF7 against protease,FGF7,able to protect
same,anti-factor Xa amydolytic activity,factor Xa [4],3200 units/mg
